Source: patent publication US20090069320A1, “Substituted 4-Amino-Quinazoline Compounds with Metabotropic Glutamate Receptor Regulating Activity and Uses Thereof” (Gruenenthal GmbH, priority 2006, published 2009)
pIC50: −log10 of the molar value. Structures can show the parent of a compound that is named as a salt.

Target: T1, mGluR5 receptor (Sus scrofa, UniProt I3LUI7)
T1 construct: 450 μg of protein from brain homogenate with 5 nM ^3[H]-MPEP; from tissue; host or cells: pig brain halves without medulla, cerebellum and pons
Assay: [3H]-MPEP mGluR5 receptor binding assay (pig brain homogenate)
Conditions: 5 nM [3H]-MPEP; for % Inhibition of mGluR5 Receptor (pig) [^3H]-MPEP Bond at 10 μM / inhibition at 10 µM: 10 μM compound; for inhibition at 10 µM: read-out: % Inhibition of mGluR5 Receptor (pig) [^3H]-MPEP Bond at 10 μM; for pIC50: read-out: IC50 mGluR5 Receptor (pig) [^3H]-MPEP Bond
Method in brief: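 Radioligand displacement of 5 nM [3H]-MPEP from pig brain homogenate (450 μg protein; medulla, cerebellum and pons removed) in 20 mM Hepes pH 8.0. Compounds were tested at 10 μM, incubated 60 min at room temperature, then filtered and counted by scintillation. Non-specific binding was defined with 10 μM MPEP.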

T1 sequence (I3LUI7 19-1212): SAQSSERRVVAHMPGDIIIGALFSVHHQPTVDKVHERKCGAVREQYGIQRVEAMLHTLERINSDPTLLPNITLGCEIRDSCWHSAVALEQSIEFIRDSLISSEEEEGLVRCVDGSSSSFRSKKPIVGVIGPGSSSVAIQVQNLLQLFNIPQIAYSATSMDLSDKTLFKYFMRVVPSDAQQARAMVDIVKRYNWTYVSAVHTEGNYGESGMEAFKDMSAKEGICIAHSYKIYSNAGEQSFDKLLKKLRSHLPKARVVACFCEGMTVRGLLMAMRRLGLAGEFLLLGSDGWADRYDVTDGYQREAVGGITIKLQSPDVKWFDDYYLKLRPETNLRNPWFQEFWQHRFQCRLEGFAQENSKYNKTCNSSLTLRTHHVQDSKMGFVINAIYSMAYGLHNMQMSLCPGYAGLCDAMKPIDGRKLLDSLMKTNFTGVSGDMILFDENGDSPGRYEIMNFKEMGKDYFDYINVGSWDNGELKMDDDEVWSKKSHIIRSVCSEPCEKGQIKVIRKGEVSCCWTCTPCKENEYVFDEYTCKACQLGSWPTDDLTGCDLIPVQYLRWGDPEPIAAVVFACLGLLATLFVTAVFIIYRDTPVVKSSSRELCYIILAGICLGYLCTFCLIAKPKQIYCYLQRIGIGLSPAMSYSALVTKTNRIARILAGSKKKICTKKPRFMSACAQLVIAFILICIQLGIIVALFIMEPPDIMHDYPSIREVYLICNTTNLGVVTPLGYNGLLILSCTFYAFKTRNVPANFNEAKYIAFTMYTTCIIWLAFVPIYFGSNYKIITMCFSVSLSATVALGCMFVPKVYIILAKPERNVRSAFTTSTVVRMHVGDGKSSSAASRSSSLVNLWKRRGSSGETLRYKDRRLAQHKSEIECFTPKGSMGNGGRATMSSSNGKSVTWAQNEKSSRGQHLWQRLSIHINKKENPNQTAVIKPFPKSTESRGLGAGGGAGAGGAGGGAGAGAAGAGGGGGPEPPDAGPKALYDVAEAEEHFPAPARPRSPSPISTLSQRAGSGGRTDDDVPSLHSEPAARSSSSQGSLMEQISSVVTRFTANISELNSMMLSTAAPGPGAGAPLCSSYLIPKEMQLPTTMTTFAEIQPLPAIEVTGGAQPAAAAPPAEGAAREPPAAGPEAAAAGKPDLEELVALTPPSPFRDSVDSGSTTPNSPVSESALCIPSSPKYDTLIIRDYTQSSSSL

| Compound | pIC50 | other results |
| --- | --- | --- |
| CC(C)S(=O)(=O)N(Cc1cc(-c2ccc3ncnc(NC4CC4)c3c2)ccc1Cl)C1CC1 [Example 854, N-(2-chloro-5-(4-(cyclopropylamino)quinazolin-6-yl)benzyl)-N-cyclopropyl propane-2-sulfonamide] | – | % Inhibition of mGluR5 Receptor (pig) [^3H]-MPEP Bond at 10 μM: 75% |
| CC(C)(C)Nc1ncnc2ccc(-c3ccc(F)c(CN(C(=O)c4ccc(F)cc4F)C4CC4)c3)cc12 [Example 855, N-(5-(4-(tert-butylamino)quinazolin-6-yl)-2-fluorobenzyl)-N-cyclopropyl-2,4-difluorobenzamide] | – | inhibition at 10 µM: 83% |
| CCCCC(=O)N(Cc1cc(-c2ccc3ncnc(NC(C)(C)C)c3c2)ccc1F)C1CC1 [Example 856, N-(5-(4-(tert-butylamino)quinazolin-6-yl)-2-fluorobenzyl)-N-cyclopropyl pentanamide] | – | % Inhibition of mGluR5 Receptor (pig) [^3H]-MPEP Bond at 10 μM: 89% |
| CC(C)(C)Nc1ncnc2ccc(-c3ccc(F)c(CN(C4CC4)S(=O)(=O)c4ccc(Cl)cc4Cl)c3)cc12 [Example 857, N-(5-(4-(tert-butylamino)quinazolin-6-yl)-2-fluorobenzyl)-2,4-dichloro-N-cyclopropyl benzole sulfonamide] | – | % Inhibition of mGluR5 Receptor (pig) [^3H]-MPEP Bond at 10 μM: 36% |
| O=S(=O)(c1cccc(C(F)(F)F)c1)N(Cc1cc(-c2ccc3ncnc(NC4CC4)c3c2)ccn1)C1CC1 [Example 858, N-cyclopropyl-N-((4-(4-(cyclopropylamino)quinazolin-6-yl)pyridin-2-yl)methyl)-3-(trifluoromethyl)benzole sulfonamide] | – | % Inhibition of mGluR5 Receptor (pig) [^3H]-MPEP Bond at 10 μM: 85% |
| O=C(c1c(F)c(F)c(F)c(F)c1F)N(Cc1cc(-c2ccc3ncnc(NC4CC4)c3c2)ccc1Cl)C1CC1 [Example 859, N-(2-chloro-5-(4-(cyclopropylamino)quinazolin-6-yl)benzyl)-N-cyclopropyl-2,3,4,5,6-pentafluorobenzamide] | – | inhibition at 10 µM: 92% |
| CC(C)(C)Nc1ncnc2ccc(-c3ccc(F)c(CN(C(=O)c4ccc(C(F)(F)F)cc4F)C4CC4)c3)cc12 [Example 860, N-(5-(4-(tert-butylamino)quinazolin-6-yl)-2-fluorobenzyl)-N-cyclopropyl-2-fluoro-4-(trifluoromethyl)benzamide] | – | inhibition at 10 µM: 63% |
| CN(C)CC(=O)N(Cc1cc(-c2ccc3ncnc(NC(C)(C)C)c3c2)ccc1F)C1CC1 [Example 861, N-(5-(4-(tert-butylamino)quinazolin-6-yl)-2-fluorobenzyl)-N-cyclopropyl-2-(dimethylamino)acetamide] | – | inhibition at 10 µM: 55% |
| CC(C)(C)CNc1ncnc2ccc(-c3cccc(CN4C(=O)CCC4=O)c3)cc12 [Example 866, 1-(3-(4-(neopentylamino)quinazolin-6-yl)benzyl)pyrrolidine-2,5-dione] | 7.05 | – |
| COCCNc1ncnc2ccc(-c3cccc(CN4C(=O)CCC4=O)c3)cc12 [Example 867, 1-(3-(4-(2-methoxyethylamino)quinazolin-6-yl)benzyl)pyrrolidine-2,5-dione hydrochloride] | – | inhibition at 10 µM: 67% |
| NC1(C(=O)NCc2cccc(-c3ccc4ncnc(NC5CC5)c4c3)c2)CC1 [Example 869, 1-amino-N-(3-(4-(cyclopropylamino)quinazolin-6-yl)benzyl)cyclopropane carboxamide dihydrochloride] | – | inhibition at 10 µM: 65% |
| O=C(N(Cc1cc(-c2ccc3ncnc(NC4CC4)c3c2)ccc1F)C1CC1)C(F)(F)F [Example 870, N-cyclopropyl-N-(5-(4-(cyclopropylamino)quinazolin-6-yl)-2-fluorobenzyl)-2,2,2-trifluoroacetamide] | 8.00 | – |
| O=C1CCC(=O)N1Cc1cccc(-c2ccc3ncnc(NC4CCC4)c3c2)c1 [Example 872, 1-(3-(4-(cyclobutylamino)quinazolin-6-yl)benzyl)pyrrolidine-2,5-dione hydrochloride] | 7.30 | – |
| CC(C)Nc1ncnc2ccc(-c3cccc(CN4C(=O)CCC4=O)c3)cc12 [Example 873, 1-(3-(4-(isopropylamino)quinazolin-6-yl)benzyl)pyrrolidine-2,5-dione hydrochloride] | 7.10 | – |
| c1cc(Cn2cccc2)cc(-c2ccc3ncnc(NC4CC4)c3c2)c1 [Example 876, 6-(3-((1H-pyrrol-1-yl)methyl)phenyl)-N-cyclopropylquinazoline-4-amine] | – | inhibition at 10 µM: 47% |
| CN1CCN(Cc2cccc(-c3ccc4ncnc(NC5CC5)c4c3)c2)C1=O [Example 877, 1-(3-(4-(cyclopropylamino)quinazolin-6-yl)benzyl)-3-methylimidazolidin-2-one] | 5.02 | – |
| CN(Cc1cccc(-c2ccc3ncnc(NC4CC4)c3c2)c1)c1ccccn1 [Example 878, N-cyclopropyl-6-(3-((methyl(pyridin-2-yl)amino)methyl)phenyl)quinazoline-4-amine] | – | inhibition at 10 µM: 56% |
| CC(=O)N(Cc1cccc(-c2ccc3ncnc(NC4CC4)c3c2)c1)C(C)=O [Example 879, N-acetyl-N-(3-(4-(cyclopropylamino)quinazolin-6-yl)benzyl)acetamide] | 5.78 | – |
| O=C1CCC(=O)N1Cc1cccc(-c2ccc3ncnc(N4CCCC4)c3c2)c1 [Example 880, 1-(3-(4-(pyrrolidin-1-yl)quinazolin-6-yl)benzyl)pyrrolidine-2,5-dione] | 5.37 | – |
| O=C1CCC(=O)N1Cc1cccc(-c2cc(Cl)c3ncnc(NC4CC4)c3c2)c1 [Example 881, 1-(3-(8-chloro-4-(cyclopropylamino)quinazolin-6-yl)benzyl)pyrrolidine-2,5-dione] | 7.70 | – |
| O=C1CCC(=O)N1Cc1cccc(-c2cc(C(F)(F)F)c3ncnc(NC4CC4)c3c2)c1 [Example 883, 1-(3-(4-(cyclopropylamino)-8-(trifluoromethyl)quinazolin-6-yl)benzyl)pyrrolidine-2,5-dione] | 7.70 | – |
| Cc1cc2ncnc(NC3CC3)c2cc1-c1cccc(CN2C(=O)CCC2=O)c1 [Example 884, 1-(3-(4-(cyclopropylamino)-7-methylquinazolin-6-yl)benzyl)pyrrolidine-2,5-dione] | 6.89 | – |
| CC1CCC(=O)N1Cc1cccc(-c2ccc3ncnc(NC4CC4)c3c2)c1 (stereo not shown) [Example 885, 1-(3-(4-(cyclopropylamino)quinazolin-6-yl)benzyl)-5-methylpyrrolidine-2-one] | 6.40 | – |
| C=CCN(Cc1cccc(-c2ccc3ncnc(NC4CC4)c3c2)c1)C(C)=O [Example 886, N-allyl-N-(3-(4-(cyclopropylamino)quinazolin-6-yl)benzyl)acetamide] | 5.70 | – |
| CCCN(Cc1cccc(-c2ccc3ncnc(NC4CC4)c3c2)c1)C(C)=O [Example 887, N-(3-(4-(cyclopropylamino)quinazolin-6-yl)benzyl)-N-propylacetamide hydrochloride] | 5.51 | – |
| c1ccc(N(Cc2cccc(-c3ccc4ncnc(NC5CC5)c4c3)c2)C2CC2)nc1 [Example 888, N-cyclopropyl-6-(3-((cyclopropyl(pyridin-2-yl)amino)methyl)phenyl)quinazoline-4-amine] | 5.58 | – |
| O=C1CCC(=O)N1Cc1cc(F)cc(-c2ccc3ncnc(NC4CC4)c3c2)c1 [Example 889, 1-(3-(4-(cyclopropylamino)quinazolin-6-yl)-5-fluorobenzyl)pyrrolidine-2,5-dione] | 6.30 | – |
| CC(=O)N(Cc1cccc(-c2ccc3ncnc(NC4CC4)c3c2)n1)C1CC1 [Example 890, N-cyclopropyl-N-((6-(4-(cyclopropylamino)quinazolin-6-yl)pyridin-2-yl)methyl)acetamide] | 5.34 | – |
